Measured values as given in US11607417B2, “Uses of celastrol in preventing and/or treating cholestatic liver disease and liver fibrosis” (KUNMING INSTITUTE OF BOTANY, THE CHINESE ACADEMY OF SCIENCES, priority 2017, dated 2023).

Key:
[1] = tested on: ANIT-induced cholestatic liver injury under SIRT1 inhibition; assay: Effect of SIRT1 inhibition (EX527) on celastrol activity in ANIT model (Example 3); format: in vivo, C57BL/6 mice
Procedure: A total of 24 male C57BL/6 mice were divided into four groups: blank group (n=6); model group (n=6); treatment group (n=6); and EX527 group (n=6).
Celastrol was dissolved in a solvent to obtain a celastrol solution at a concentration of 2 mg/mL, wherein the solvent consisted of 1% DMSO, 2% Tween 80, and 97% water (v:v:v). For intragastrical administration, the dosage of celastrol was 10 mg/kg·d. ANIT was dissolved in corn oil to obtain a corn oil solution of ANIT at a concentration of 15 mg/mL, and the dosage of ANIT for intragastrical administration was 75 mg/kg. EX527 was dissolved in corn oil to obtain a corn oil solution of EX527 at a concentration of 2 mg/mL, and the dosage of EX527 for intraperitoneal injection was 10 mg/kg·d.
(§1) The EX527 group was simultaneously administrated with the celastrol solution and the EX527 corn oil solution for 5 consecutive days. The treatment group was administrated with the celastrol solution and an equal dosage of corn oil for 5 consecutive days. At the same time, the blank group and the model group were administrated with equal dosages of solvent (1% DMSO, 2% Tween 80 and 97% water (v:v:v)) and corn oil, and the solvent was administrated for 5 consecutive days.
On the 3rd day of administration, ANIT model was established. 4 Hours after administration, the mice in the model group, the treatment group and the EX527 group were respectively intraperitoneally injected with the ANIT corn oil solution at a dosage of 75 mg/kg for single administration to induce cholestatic liver injury, and the blank group was fed with an equal dosage of corn oil. After the model was established on the 3rd day of administration, the treatment group was continuously administrated with celastrol, the EX527 group was continuously administrated with celastrol and EX527, and the blank group and the model group were continuously administrated with the same dosage of solvent. 48 Hours after administration with ANIT, the mice were sacrificed by CO2 anesthesia, and mouse liver samples and plasma samples were taken. The eyeballs of the mice were taken for blood collection. The plasma samples were placed on ice for 1-2 hours, centrifuged at 4000 g for 5 minutes at 4° C., and the supernatants of the plasma samples were taken to determine plasma biochemical indicators, the levels of ALT, AST and ALP.
At the same time, plasma samples were prepared: 10 μL of plasma sample was taken, mixed well with 190 μL of 67% acetonitrile (containing 5 μM internal standard chlorpropamide), centrifuged at 18000 g for 20 minutes at 4° C., and the supernatant was taken for sample injection. The liquid chromatography conditions were as follows: the injection volume was 5 μL; the temperature of column was 45° C.; the flow rate of mobile phase was 0.3 mL/min; the gradient elution was that acetonitrile concentration changed from 2% to 98% during 16 minutes of operation, wherein the mobile phase (water/acetonitrile solution) contained 0.01% formic acid. The elution procedure was as follows: during 0-12th minute, the acetonitrile concentration changed from 2% to 98% at a constant rate; during 12-14th minute, the acetonitrile concentration was maintained at 98%; during 14-14.1th minute, the acetonitrile concentration changed from 98% to 2%; during 14.1-16th minute, the acetonitrile concentration was maintained at 2%. Mass spectrometry conditions were as follows: the temperature of dry gas was 350° C., the pressure of nebulizer was 35 psi, and the voltage of capillary was 3.5 kV.
Part of the collected mouse liver tissue was fixed overnight in formalin and tissue sections were stained with hematoxylin and eosin (H&E).

[2] = tested on: TAA-induced cholestatic liver injury under SIRT1 inhibition; assay: Effect of SIRT1 inhibition (EX527) on celastrol activity in TAA model (Example 4); format: in vivo, C57BL/6 mice; conditions: TAA model
Procedure: A total of 24 male C57BL/6 mice were divided into four groups: blank group (n=6);
model group (n=6); treatment group (n=6); EX527 group (n=6).
Celastrol was dissolved in a solvent to obtain a solution of celastrol at a concentration of 2 mg/mL, wherein the solvent consisted of 1% DMSO, 2% Tween, and 97% water (v:v:v). For intragastrical administration, the dosage of celastrol was 10 mg/kg·d. TAA was dissolved in 0.9% NaCl solution to prepare a NaCl solution of TAA at a concentration of 60 mg/mL, and the dosage of TAA for intraperitoneal administration was 300 mg/kg. EX527 was dissolved in corn oil to prepare a corn oil solution of EX527 at a concentration of 2 mg/mL, and the dosage of EX527 for intraperitoneal administration was 10 mg/kg. d.
as §1, with “simultaneously administered” for “simultaneously administrated”, “for 4” for “for 5”
On the 4th day, the establishment of TAA model was performed. 1 Hour after administration, the mice in the model group, the treatment group and the EX527 group were intraperitoneally injected with TAA at a dosage of 300 mg/kg to induce cholestatic liver injury. 24 Hours after administration with TAA, the mice were sacrificed by CO2 anesthesia, and plasma samples and liver samples were collected. The eyeballs of the mice were taken for blood collection. The plasma samples were placed on ice for 1-2 hours, centrifuged at 4000 g for 5 minutes at 4° C., and the supernatants of plasma samples were taken to determine the plasma biochemical indicators, the levels of ALT, AST, and ALP.
At the same time, plasma samples were prepared: 10 μL of plasma sample was mixed with 190 μL of 67% acetonitrile (containing 5 μM internal standard chlorpropamide), centrifuged at 18000 g for 20 minutes at 4° C., and the supernatant was taken for sample injection. The liquid chromatography conditions were as follows: the volume of injection was 5 μL; the temperature of column was 45° C.; the flow rate of mobile phase was 0.3 mL/min; the gradient elution was that acetonitrile concentration changed from 2% to 98% during 16 minutes of operation, wherein the mobile phase (water/acetonitrile solution) contained 0.01% formic acid. The elution procedure was as follows: during 0-12th minute, the acetonitrile concentration changed from 2% to 98% at a constant rate; during 12-14th minute, the acetonitrile concentration was maintained at 98%; during 14-14.1th minute, the acetonitrile concentration changed from 98% to 2%; during 14.1-16th minute, the acetonitrile concentration was maintained at 2%. Mass spectrometry conditions were as follows: the temperature of dry gas was 350° C., the pressure of nebulizer was 35 psi, and the voltage of capillary was 3.5 kV.
Part of the collected mouse liver tissue was fixed overnight in formalin, and tissue sections were stained with hematoxylin and eosin (H&E).

[3] = EX527 group: celastrol 10 mg/kg·d + EX527 10 mg/kg·d i.p., P<0.05, FIG. 3E
[4] = EX527 group: celastrol 10 mg/kg·d + EX527 10 mg/kg·d i.p., P<0.001, FIG. 4E

Question: Which results are given for `NC(=O)C1CCCc2c1[nH]c1ccc(Cl)cc21` (centres unmarked) [EX527, reference compound]?
Answer: Levels of bile acids in plasma vs treatment group ([1]; CA, TβMCA/TαMCA and THDCA/TUDCA, EX527 group: celastrol + EX527 10 mg/kg·d i.p., P<0.05, FIG. 3F): significantly higher; H&E staining of mouse liver tissue ([1]; EX527 group: celastrol 10 mg/kg·d + EX527 10 mg/kg·d i.p., FIG. 3D): a severe inflammatory infiltration and a periportal hemorrhage also occurred; ALT level in plasma vs treatment group [1, 3]: significantly higher; AST level in plasma vs treatment group [1, 3]: significantly higher; Levels of bile acids in plasma vs treatment group ([2]; DCA, TβMCA/TαMCA, TCA and TDCA, EX527 group: celastrol + EX527 10 mg/kg·d i.p., P<0.05, FIG. 4F): significantly higher; H&E staining of mouse liver tissue ([2]; EX527 group: celastrol 10 mg/kg·d + EX527 10 mg/kg·d i.p., FIG. 4D): a severe necrosis of liver cells also occurred; ALT level in plasma vs treatment group [2, 4]: significantly higher; AST level in plasma vs treatment group [2, 4]: significantly higher
